Laboratory results: ChEMBL document CHEMBL1201862, “PubChem BioAssay data set” (2004)
Calls of active or inactive are those of the source.

Assays:
[1] = molecular target: Intestinal-type alkaline phosphatase (Homo sapiens, UniProt P09923); experiment: inhibition of human intestinal alkaline phosphatase – biochemical, dose response (AID 488876); type: functional
[2] = molecular target: T1, Alkaline phosphatase, tissue-nonspecific isozyme (Homo sapiens, UniProt P05186); experiment: TNAP enzyme activators, dose response, selectivity assay for mouse IAP activator project, biochemical, TNAP isozyme, mouse IAP uHTS hits (AID 488880); type: functional
T1 sequence (P05186 whole entry): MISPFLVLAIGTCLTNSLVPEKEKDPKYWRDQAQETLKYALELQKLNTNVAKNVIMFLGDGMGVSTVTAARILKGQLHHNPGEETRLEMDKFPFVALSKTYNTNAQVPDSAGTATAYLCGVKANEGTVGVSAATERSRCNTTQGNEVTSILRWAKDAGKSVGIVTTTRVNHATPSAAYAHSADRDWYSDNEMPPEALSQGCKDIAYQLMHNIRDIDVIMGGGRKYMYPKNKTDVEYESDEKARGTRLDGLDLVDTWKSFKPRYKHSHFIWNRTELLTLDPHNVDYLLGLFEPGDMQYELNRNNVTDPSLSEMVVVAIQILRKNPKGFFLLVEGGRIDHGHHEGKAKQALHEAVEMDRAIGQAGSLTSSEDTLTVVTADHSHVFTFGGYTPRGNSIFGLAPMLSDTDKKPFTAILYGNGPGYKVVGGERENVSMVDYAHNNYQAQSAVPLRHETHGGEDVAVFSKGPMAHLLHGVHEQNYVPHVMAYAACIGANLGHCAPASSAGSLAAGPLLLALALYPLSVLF

[3] = molecular target: Intestinal-type alkaline phosphatase (Mus musculus, UniProt P24822); experiment: PubChem AID 488785; type: functional
Chain of Intestinal-type alkaline phosphatase (Mus musculus, UniProt P24822) (P24822 whole entry): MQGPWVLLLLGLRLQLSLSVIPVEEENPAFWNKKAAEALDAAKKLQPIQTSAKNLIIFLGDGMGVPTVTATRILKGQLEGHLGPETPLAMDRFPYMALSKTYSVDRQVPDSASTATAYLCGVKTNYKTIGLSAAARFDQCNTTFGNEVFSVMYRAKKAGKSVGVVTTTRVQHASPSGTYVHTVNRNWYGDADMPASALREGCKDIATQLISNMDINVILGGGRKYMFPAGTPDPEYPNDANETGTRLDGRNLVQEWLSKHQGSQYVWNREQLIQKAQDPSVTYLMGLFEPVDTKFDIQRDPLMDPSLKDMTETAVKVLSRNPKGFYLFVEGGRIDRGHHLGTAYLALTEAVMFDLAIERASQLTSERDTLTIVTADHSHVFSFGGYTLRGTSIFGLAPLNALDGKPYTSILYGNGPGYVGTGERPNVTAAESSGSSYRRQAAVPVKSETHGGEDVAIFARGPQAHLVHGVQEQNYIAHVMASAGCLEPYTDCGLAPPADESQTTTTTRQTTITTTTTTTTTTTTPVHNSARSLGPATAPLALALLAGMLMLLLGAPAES

Cannabinoid receptor 1 = Cannabinoid receptor 1 (Homo sapiens, UniProt P21554); experiment: SAR analysis of antagonists of the Cannabinoid Receptor 1 using an Image-Based Assay. [Related pubchem assays (depositor defined):AID1961, AID1965]; type: functional
Chain of Cannabinoid receptor 1 (P21554 whole entry): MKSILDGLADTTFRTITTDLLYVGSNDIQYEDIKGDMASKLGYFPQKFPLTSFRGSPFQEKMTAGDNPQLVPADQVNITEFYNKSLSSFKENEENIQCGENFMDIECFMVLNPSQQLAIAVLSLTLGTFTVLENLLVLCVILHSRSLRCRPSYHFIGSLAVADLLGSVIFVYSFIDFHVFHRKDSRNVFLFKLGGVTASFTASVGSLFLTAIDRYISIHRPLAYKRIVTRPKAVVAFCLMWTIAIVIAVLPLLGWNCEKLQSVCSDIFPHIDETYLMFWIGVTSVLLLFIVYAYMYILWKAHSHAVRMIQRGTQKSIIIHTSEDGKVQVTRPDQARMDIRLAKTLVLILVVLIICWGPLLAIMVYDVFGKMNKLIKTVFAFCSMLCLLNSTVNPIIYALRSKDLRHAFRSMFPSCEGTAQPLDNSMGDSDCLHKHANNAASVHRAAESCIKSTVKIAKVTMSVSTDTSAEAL

[4] = molecular target: T2, G-protein coupled receptor 55 (Homo sapiens, UniProt Q9Y2T6); experiment: GPR55 agonists via beta-arrestin recruitment, primary screen, imaging, U2OS cells, beta-arrestin-GFP redistribution (AID 1961); type: functional
T2 sequence (Q9Y2T6 whole entry): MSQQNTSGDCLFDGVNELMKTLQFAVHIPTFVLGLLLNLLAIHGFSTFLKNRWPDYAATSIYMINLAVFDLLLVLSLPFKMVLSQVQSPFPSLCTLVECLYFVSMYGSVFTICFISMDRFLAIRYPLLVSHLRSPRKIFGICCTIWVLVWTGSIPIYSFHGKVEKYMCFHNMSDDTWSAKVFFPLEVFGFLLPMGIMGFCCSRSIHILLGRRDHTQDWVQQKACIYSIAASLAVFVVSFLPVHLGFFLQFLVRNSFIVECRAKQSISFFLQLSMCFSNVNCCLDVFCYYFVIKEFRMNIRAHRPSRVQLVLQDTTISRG

[5] = molecular target: T2, G-protein coupled receptor 55; experiment: SAR analysis of selective Agonists of GPR55 using an Image-Based Assay. [Related pubchem assays (depositor defined):AID1961, AID1965]; type: functional
Cannabinoid receptor 2 [6] = molecular target: T3, Cannabinoid receptor 2 (Homo sapiens, UniProt P34972); experiment: SAR analysis of antagonists of the Cannabinoid Receptor 2 using an Image-Based Assay - Set 2. [Related pubchem assays (depositor defined):AID1961, AID1965]; type: functional
T3 sequence (P34972 whole entry): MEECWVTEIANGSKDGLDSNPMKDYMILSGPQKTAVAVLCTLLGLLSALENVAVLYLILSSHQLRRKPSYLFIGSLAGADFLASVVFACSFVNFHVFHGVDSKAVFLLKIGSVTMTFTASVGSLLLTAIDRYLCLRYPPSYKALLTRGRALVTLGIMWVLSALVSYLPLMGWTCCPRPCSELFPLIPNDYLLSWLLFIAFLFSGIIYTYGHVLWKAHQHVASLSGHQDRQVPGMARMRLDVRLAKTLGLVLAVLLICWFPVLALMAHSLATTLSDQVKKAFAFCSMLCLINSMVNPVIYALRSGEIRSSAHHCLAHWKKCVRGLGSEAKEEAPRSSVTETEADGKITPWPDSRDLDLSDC

Cannabinoid receptor 2 [7] = molecular target: T3, Cannabinoid receptor 2; experiment: SAR analysis of agonists of the Cannabinoid Receptor 2 using an Image-Based Assay - Set 2. [Related pubchem assays (depositor defined):AID1961, AID1965]; type: functional
[8] = molecular target: T4, Kappa-type opioid receptor (Homo sapiens, UniProt P41145); experiment: KOR agonist analogs, imaging readout, SAR follow-up, image-based (AID 2359); type: functional
T4 sequence (P41145 whole entry, the tested form may be a part): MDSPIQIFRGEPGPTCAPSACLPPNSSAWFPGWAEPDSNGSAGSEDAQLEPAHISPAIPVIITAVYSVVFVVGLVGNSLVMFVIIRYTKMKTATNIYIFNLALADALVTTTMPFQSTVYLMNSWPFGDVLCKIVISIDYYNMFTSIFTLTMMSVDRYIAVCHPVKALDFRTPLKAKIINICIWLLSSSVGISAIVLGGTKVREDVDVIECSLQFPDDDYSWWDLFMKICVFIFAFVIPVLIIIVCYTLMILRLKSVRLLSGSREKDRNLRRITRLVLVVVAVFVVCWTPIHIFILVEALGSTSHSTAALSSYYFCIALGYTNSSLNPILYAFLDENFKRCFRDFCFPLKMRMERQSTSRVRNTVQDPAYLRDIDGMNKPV

[9] = molecular target: Disintegrin and metalloproteinase domain-containing protein 17 (Homo sapiens, UniProt P78536); experiment: ADAM17 protease inhibitors, dose response, counter-screen for ADAM10 exosite inhibitor project, biochemical, quenched FRET substrate (AID 743253)
Streptococcus = experiment: Group A Streptococcus viability loss, dose response, counter-screen for streptokinase expression inhibitor project, luminescence, BacTiterGlo (AID 1915); type: functional, organism-based;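 also: potency for reduction of bacterial viability or growth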
[10] = molecular target: T4, Kappa-type opioid receptor; experiment: kappa opioid receptor blockers, cell-based, luminescence, beta-arrestin, SAR follow-up (AID 2285); type: functional
[11] = growth suppression of PTEN-null colon cells, dose response, cell-based, HCT116 PTEN knockout (AID 1047); type: functional;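 also: HCT116 colon tumor cells with PTEN knocked out; cells exposed to compound for 60 hours before readout; potency for loss of cell viability measured by luminescence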
[12] = molecular target: T5, Delta-type opioid receptor (Homo sapiens, UniProt P41143); experiment: DOR antagonists, SAR follow-up, image-based (AID 2357); type: functional
T5 sequence (P41143 whole entry): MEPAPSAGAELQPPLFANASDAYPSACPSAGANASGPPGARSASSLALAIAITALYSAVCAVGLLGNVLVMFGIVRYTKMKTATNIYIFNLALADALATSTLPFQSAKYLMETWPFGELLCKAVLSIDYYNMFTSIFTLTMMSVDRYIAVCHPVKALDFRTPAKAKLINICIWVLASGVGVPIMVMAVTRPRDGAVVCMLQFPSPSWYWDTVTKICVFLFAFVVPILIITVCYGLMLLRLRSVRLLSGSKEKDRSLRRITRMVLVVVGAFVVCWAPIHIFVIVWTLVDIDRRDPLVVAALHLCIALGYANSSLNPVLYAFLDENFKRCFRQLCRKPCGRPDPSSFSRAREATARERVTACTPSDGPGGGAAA

[13] = molecular target: Dual specificity protein phosphatase 3 (Homo sapiens, UniProt P51452); experiment: SAR VHR1 Fluorescent Assay for In Vitro dose response studies Set 2. [Related pubchem assays (depositor defined):AID1654, AID1661, AID1878]; type: functional
Chain of Dual specificity protein phosphatase 3 (P51452 whole entry): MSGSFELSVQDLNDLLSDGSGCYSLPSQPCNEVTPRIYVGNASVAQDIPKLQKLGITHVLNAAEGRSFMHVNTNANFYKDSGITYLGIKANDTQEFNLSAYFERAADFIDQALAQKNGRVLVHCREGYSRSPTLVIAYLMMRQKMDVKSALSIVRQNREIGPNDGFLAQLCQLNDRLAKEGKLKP

[14] = ADAM10 inhibitors, peptide cleavage, dose response, biochemical, QFRET (AID 743254);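 also: ADAM10 enzyme with the DM2 quenched FRET peptide as substrate; EDANS fluorescence gain as the protease cuts the substrate; inhibitor potency against ADAM10 proteolytic activity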
Streptokinase A = molecular target: T6, Streptokinase A (Streptococcus pyogenes serotype M1, UniProt P10520); experiment: S. pyogenes streptokinase expression inhibitors, potency, dose response, plasminogen activation absorbance, OD405 (AID 1914); type: functional, Streptococcus pyogenes M1 GAS;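 also: secreted streptokinase activity via plasminogen activation per viability signal from cell pellet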
T6 sequence (P10520 whole entry): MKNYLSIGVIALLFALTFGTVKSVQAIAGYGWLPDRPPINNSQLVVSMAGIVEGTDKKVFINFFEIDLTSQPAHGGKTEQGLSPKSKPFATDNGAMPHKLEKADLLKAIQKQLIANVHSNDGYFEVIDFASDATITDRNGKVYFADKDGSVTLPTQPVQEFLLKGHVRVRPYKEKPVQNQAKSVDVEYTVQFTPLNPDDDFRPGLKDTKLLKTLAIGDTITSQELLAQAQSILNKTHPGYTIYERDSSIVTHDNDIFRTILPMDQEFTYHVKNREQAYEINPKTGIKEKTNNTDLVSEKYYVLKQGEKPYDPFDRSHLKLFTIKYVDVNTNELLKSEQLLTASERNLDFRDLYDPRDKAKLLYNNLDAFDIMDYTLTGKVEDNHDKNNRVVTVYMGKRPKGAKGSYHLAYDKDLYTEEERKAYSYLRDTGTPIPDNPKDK

Mu-type opioid receptor [15] = molecular target: T7, Mu-type opioid receptor (Homo sapiens, UniProt P35372); experiment: MOR antagonists, SAR follow-up, image-based (AID 2420); type: functional;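 also: compounds added before stimulation of receptor with agonist DAMGO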
T7 sequence (P35372 whole entry): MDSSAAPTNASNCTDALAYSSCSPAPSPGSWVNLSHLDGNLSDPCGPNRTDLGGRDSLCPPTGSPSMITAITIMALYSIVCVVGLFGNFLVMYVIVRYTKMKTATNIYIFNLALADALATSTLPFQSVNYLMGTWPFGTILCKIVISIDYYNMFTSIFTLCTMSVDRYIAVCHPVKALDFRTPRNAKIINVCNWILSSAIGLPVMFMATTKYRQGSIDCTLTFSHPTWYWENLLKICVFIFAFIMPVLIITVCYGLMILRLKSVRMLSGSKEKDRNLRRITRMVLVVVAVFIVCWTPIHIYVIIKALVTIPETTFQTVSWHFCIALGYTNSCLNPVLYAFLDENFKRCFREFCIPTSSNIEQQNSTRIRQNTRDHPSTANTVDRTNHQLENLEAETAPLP

[16] = molecular target: T4, Kappa-type opioid receptor; experiment: KOR antagonists by imaging, SAR follow-up, image-based (AID 2348); type: functional
[17] = test system: Streptococcus sp. 'group A'; experiment: growth inhibition of control SK(-) GAS strain, dose response, counter-screen for streptokinase expression inhibitor project, luminescence, kanamycin, BacTiterGlo, confirmation (AID 1900); type: functional, organism-based
[18] = growth suppression of beta-catenin-knockout colon cells, dose response, cell-based, HCT116, human colon tumor (AID 1045); type: functional;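 also: HCT116 colon tumor cells with beta catenin knocked out; cells exposed to compound for 60 hours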
[19] = Luminescence Cell-Based Dose Retest to Confirm Inhibitors of Cancer Stem Cells. [Related pubchem assays (depositor defined):AID2717, AID2721]; type: functional; details: Homo sapiens
[20] = molecular target: T8, Tyrosine-protein phosphatase non-receptor type 7 (Homo sapiens, UniProt P35236); experiment: SAR analysis of chemical inhibitors of HePTP using a Fluorescent assay - Set 2. [Related pubchem assays (depositor defined):AID1059, AID1077, AID1661, AID2085, AID521]; type: functional
T8 sequence (P35236 whole entry): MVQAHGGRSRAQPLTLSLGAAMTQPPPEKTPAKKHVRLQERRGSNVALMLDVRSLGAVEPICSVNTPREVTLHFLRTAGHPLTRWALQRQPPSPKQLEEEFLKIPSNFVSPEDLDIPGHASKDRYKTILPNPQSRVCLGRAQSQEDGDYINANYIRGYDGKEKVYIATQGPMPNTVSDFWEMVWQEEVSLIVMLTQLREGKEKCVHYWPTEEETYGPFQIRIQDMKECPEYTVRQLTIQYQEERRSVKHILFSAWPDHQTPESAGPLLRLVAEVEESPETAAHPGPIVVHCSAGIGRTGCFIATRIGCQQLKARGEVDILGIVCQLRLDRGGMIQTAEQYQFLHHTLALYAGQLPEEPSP

Mu-type opioid receptor [21] = molecular target: T7, Mu-type opioid receptor; experiment: MOR agonists by imaging, SAR follow-up, image-based (AID 2352); type: functional
[22] = molecular target: T5, Delta-type opioid receptor; experiment: DOR agonists, SAR follow-up, image-based (AID 2370); type: functional
Beta-galactosidase = Beta-galactosidase (Escherichia coli, UniProt Q8VNN2); type: functional
[23] = molecular target: T4, Kappa-type opioid receptor; type: functional
[24] = molecular target: T5, Delta-type opioid receptor; experiment: HTS Image-Based Screen for Agonists of the DOR Receptor. [Related pubchem assays (depositor defined):AID1777, AID1786, AID2133]; type: functional
[25] = molecular target: T5, Delta-type opioid receptor; experiment: HTS Image-Based Screen for Antagonists of the DOR Receptor. [Related pubchem assays (depositor defined):AID1777, AID1785, AID1786, AID2133]; type: functional
[26] = molecular target: T4, Kappa-type opioid receptor; type: functional; remark: listed apart in the source
Mu-type opioid receptor [27] = molecular target: T7, Mu-type opioid receptor; experiment: HTS Image-Based Screen for Agonists of the MOR Receptor. [Related pubchem assays (depositor defined):AID1777, AID1785, AID1786, AID2133]; type: functional
Tumor necrosis factor = Tumor necrosis factor (Homo sapiens, UniProt P01375); experiment: TNFa-triggered NF-kB activation inhibitors, SAR follow-up, cell-based, revised (AID 2337); type: functional
Chain of Tumor necrosis factor (P01375 whole entry): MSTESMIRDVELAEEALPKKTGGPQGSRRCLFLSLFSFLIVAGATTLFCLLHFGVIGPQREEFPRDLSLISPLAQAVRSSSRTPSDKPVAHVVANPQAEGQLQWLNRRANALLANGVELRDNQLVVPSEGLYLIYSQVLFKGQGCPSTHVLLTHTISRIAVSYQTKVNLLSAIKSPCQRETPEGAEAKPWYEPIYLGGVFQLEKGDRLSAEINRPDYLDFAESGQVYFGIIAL

HEK293 = experiment: cells; details: Homo sapiens
SUMO-activating enzyme = SUMO-activating enzyme (Homo sapiens, UniProt Q9UBT2); experiment: SUMOylation inhibitor hit validation, confirmation, SUMOylation inhibitor project, biochemical, AlphaScreen (AID 2018); type: functional
Chain of SUMO-activating enzyme (Q9UBE0 whole entry): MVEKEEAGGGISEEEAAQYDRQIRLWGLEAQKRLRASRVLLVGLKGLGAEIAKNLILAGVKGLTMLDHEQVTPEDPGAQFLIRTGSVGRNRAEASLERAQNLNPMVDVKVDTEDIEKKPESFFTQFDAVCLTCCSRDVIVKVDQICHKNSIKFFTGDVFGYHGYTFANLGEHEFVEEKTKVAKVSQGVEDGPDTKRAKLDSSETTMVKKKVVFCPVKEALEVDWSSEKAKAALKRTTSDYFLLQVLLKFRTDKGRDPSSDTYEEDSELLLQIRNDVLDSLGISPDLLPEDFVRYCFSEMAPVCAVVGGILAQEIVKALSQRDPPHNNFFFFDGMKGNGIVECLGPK
Chain of SUMO-activating enzyme (Q9UBT2 whole entry): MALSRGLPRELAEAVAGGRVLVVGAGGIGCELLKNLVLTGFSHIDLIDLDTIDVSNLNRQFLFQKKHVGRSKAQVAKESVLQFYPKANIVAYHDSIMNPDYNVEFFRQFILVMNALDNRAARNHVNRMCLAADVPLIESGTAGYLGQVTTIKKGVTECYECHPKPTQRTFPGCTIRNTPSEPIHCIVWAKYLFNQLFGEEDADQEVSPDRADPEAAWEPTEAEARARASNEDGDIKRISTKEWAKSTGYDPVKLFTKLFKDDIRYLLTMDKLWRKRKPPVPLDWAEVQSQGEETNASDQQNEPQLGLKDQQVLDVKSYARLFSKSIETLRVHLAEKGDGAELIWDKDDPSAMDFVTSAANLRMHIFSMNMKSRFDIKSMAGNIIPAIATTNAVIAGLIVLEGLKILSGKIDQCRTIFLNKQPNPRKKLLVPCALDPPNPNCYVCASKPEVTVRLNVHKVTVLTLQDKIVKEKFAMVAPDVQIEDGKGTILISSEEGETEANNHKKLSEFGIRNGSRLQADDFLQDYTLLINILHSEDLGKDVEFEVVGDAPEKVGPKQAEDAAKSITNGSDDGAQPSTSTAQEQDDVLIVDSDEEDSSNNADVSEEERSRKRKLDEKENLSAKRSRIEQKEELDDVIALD
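For AC50 in this document: cells exposed to compound for roughly 70 hours or longer before luminescence read.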

Chain of Intestinal-type alkaline phosphatase (Homo sapiens, UniProt P09923) (P09923 whole entry): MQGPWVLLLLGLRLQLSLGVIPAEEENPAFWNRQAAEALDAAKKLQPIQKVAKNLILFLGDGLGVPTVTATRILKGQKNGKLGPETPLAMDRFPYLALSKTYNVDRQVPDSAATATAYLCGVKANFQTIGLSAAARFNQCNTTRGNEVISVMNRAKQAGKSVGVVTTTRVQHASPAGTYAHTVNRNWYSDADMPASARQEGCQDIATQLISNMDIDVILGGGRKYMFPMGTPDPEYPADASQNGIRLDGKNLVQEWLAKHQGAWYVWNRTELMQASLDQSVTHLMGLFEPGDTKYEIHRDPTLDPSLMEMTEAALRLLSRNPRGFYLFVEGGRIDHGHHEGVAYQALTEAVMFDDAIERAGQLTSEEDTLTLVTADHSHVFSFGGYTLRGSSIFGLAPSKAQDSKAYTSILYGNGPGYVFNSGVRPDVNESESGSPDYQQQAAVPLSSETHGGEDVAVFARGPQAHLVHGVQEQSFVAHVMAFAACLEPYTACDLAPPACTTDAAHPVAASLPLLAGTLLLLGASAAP

## N#Cc1cccc(NC(=O)CCNS(=O)(=O)c2ccc3nc(O)oc3c2)c1
[1]
  IC50: > 100 µM (inactive)
[2]
  EC50: > 100 µM (inactive)
[3]
  IC50: 21.7 µM (active)

## Cc1cccc(N2CCN(C(=O)c3cc(S(=O)(=O)N(C)C)ccc3N3CCCC3)CC2)c1C
Cannabinoid receptor 1
  IC50: 21.7 µM (inactive)
[4]
  EC50: 0.508 µM (active)
[5]
  EC50: 0.263 µM (active)
Cannabinoid receptor 2 [6]
  IC50: 15.1 µM (inactive)
Cannabinoid receptor 2 [7]
  EC50: > 32 µM (inactive)

## O=C(NC(NC(=S)Nc1cccc(Cl)c1)C(Cl)(Cl)Cl)OCc1ccccc1 (centres undefined)
[8]
  EC50: > 32 µM (inactive)
[9]
  IC50: > 69.5 µM (inactive)
Streptococcus
  EC50: 5.92 µM (active)
[10]
  IC50: > 10 µM (inactive)
[11]
  EC50: 19.7 µM (active)
[12]
  IC50: 24.4 µM (inactive)
[13]
  IC50: > 100 µM (inactive)
[14]
  IC50: > 7.72 µM (active)
Streptokinase A
  EC50: 3.92 µM (active)
Mu-type opioid receptor [15]
  IC50: > 32 µM (inactive)
[16]
  IC50: 12.3 µM (inactive)
[17]
  EC50: 3.59 µM (active)
[18]
  EC50: 19.6 µM (active)
[19]
  AC50: 1.53 µM (active)
[20]
  IC50: 87 µM (active)
Mu-type opioid receptor [21]
  EC50: > 32 µM (inactive)
[22]
  EC50: > 32 µM (inactive)

## Cc1cn(-c2cc(NC(=O)c3ccc(C)c(NC(=O)c4cccc(-c5cnnc(O)c5)c4)c3)cc(C(F)(F)F)c2)cn1
Beta-galactosidase
  EC50: > 31.5 µM (inactive)
[23]
  IC50: 5.1 µM
[24]
  EC50: > 32 µM (inactive)
[25]
  IC50: > 32 µM (inactive)
[26]
  IC50: 9.01 µM (active)
Mu-type opioid receptor [27]
  EC50: > 32 µM (inactive)

## CC(=O)c1ccc(N2CCN(S(=O)(=O)c3ccc4c(c3)CCN4C(=O)C3CC3)CC2)cc1
Tumor necrosis factor
  IC50: 16.6 µM (active)
HEK293
  IC50: > 20 µM (inactive)

## CCCCCn1c(N)c(C#N)c2nc3ccccc3nc21
SUMO-activating enzyme
  IC50: 15.7 µM (active)
